From paper PMC8482815, “Targeting Host Glycolysis as a Strategy for Antimalarial Development” (Frontiers in Cellular and Infection Microbiology, 2021)
Where “and” joins values, the source holds several entries; their conditions need not be identical. Equal values may be shown once.

Tested on: human erythrocytes
Experiment: Untargeted metabolomics and 13C-glucose tracing of enolase inhibitor treated erythrocytes
Assay type: cell-based
Settings: 0.5h
Procedure: Freshly collected erythrocytes were washed, resuspended to 10% hematocrit in buffer [25mM HEPES (pH 7.4), 120mM NaCl, 5.4mM KCl, 1.8mM CaCl2, and 1mM NaH2PO4], incubated for 1 hour at 37°C, then centrifuged at 2000xg for 5 minutes at 4°C, resuspended in fresh wash buffer to 30-40% hematocrit, and split into 210µL aliquots of packed erythrocytes. […] All samples were incubated at 37°C shaking at 500 RPM. Triplicate samples of supernatants and packed erythrocytes were collected at 0, 0.5, 1, and 6-hour intervals and snap-frozen in liquid N2.
RBC and media samples were extracted at 1:10 and 1:20 dilutions, respectively, in 5:3:2 MeOH : MeCN:H2O v/v/v, and supernatants analyzed on a Thermo Vanquish UHPLC coupled to a Thermo Q Exactive mass spectrometer, as extensively described ([Nemkov et al., 2015]; [Nemkov et al., 2017]). The extraction buffer was supplemented with 40uM 3-^13C lactate to allow absolute quantification of lactate isotopologues, including lactate generated via glycolysis ([1,2,3-^13C3] enriched) vs. the pentose phosphate pathway ([2,3-^13C2] enriched), as described ([Reisz et al., 2016]). Metabolite assignments, peak area integration and isotopologues distributions were determined using Maven (Princeton University) ([Nemkov et al., 2015]; [Nemkov et al., 2017]).
Data were auto-scaled and normalized to zero-hour time points. Metabolites were removed from the dataset if greater than 50% of the samples contained missing values or the relative standard deviation among replicates exceeded 25%. Additionally, data was filtered using the interquartile range to reduce near-constant values from the experiment by 5%.
A principal component analysis of preprocessed data was plotted with the 95% confidence interval minimum volume enclosing ellipsoid for each respective group (MetaboAnalyst, cluster, plotly). A two-way repeated measures analysis of variance (ANOVA) was performed with multiple comparisons corrected for using a false discovery rate p-value cutoff of 0.05. Metabolite-Pathway analysis was performed using the R package of MetaboAnalyst, as previously described ([Xia and Wishart, 2010]). Metabolite-Protein nodal analysis was performed using omicsnet.ca and as previously described ([Zhou and Xia, 2018]).

[1] = treated erythrocytes, one value per replicate sample, polarity +
[2] = treated erythrocytes, one value per replicate sample, polarity -
[3] = treated erythrocytes, replicate samples

## CC(C)(C)C(=O)OCOP(=O)(OCOC(=O)C(C)(C)C)C1CC(O)N(O)C1=O (stereo not shown) [POMSF]
Replicate samples
  AMP level (metabolomics signal): 2.22E+06 and 1.69E+06 and 1.24E+06
  ATP level (metabolomics signal): 6.37E+03 and 8.43E+03 and 5.73E+03
  Adenine level (metabolomics signal): 1.92E+05 and 1.77E+05 and 1.67E+05
  Cytosine level (metabolomics signal): 5.62E+05 and 5.81E+05 and 5.75E+05
  L-alanine level (metabolomics signal): 8.49E+06 and 9.99E+06 and 1.01E+07
  L-arginine level (metabolomics signal): 8.18E+06 and 5.94E+06 and 8.91E+06
  L-asparagine level (metabolomics signal): 3.70E+06 and 4.01E+06 and 4.49E+06
  L-aspartate level (metabolomics signal): 3.38E+07 and 3.70E+07 and 4.18E+07
  L-cysteine level (metabolomics signal): 5.61E+05 and 2.55E+05 and 1.58E+05
  L-glutamate level (metabolomics signal): 3.26E+07 and 3.43E+07 and 3.68E+07
  L-glutamine level (metabolomics signal): 3.77E+07 and 4.04E+07 and 5.11E+07
  L-histidine level (metabolomics signal): 1.39E+06 and 1.38E+06 and 1.35E+06
  L-isoleucine level (metabolomics signal): 1.79E+07 and 1.67E+07 and 1.69E+07
  L-leucine level (metabolomics signal): 1.70E+08 and 1.83E+08 and 2.03E+08
  L-lysine level (metabolomics signal): 2.70E+06 and 2.39E+06 and 2.59E+06
  L-methionine level (metabolomics signal): 1.52E+07 and 1.66E+07 and 1.85E+07
  L-phenylalanine level (metabolomics signal): 8.08E+06 and 8.86E+06 and 1.12E+07
  L-proline level (metabolomics signal): 4.22E+07 and 3.45E+07 and 3.96E+07
  L-serine level (metabolomics signal): 2.93E+06 and 2.66E+06 and 3.79E+06
  L-threonine level (metabolomics signal): 5.71E+06 and 5.05E+06 and 5.98E+06
  L-tryptophan level (metabolomics signal): 5.93E+06 and 3.78E+06 and 4.71E+06
  L-tyrosine level (metabolomics signal): 1.94E+07 and 2.09E+07 and 2.16E+07
  L-valine level (metabolomics signal): 1.34E+08 and 1.45E+08 and 1.42E+08
  dCMP level (metabolomics signal): 1.87E+04 and 1.84E+04 and 1.76E+04
  dTMP level (metabolomics signal): 1.29E+06 and 8.42E+05 and 1.18E+06
  glycine level (metabolomics signal): 1.56E+06 and 1.61E+06 and 1.75E+06
[1]
  N-Acyl-D-aspartate (C06380) metabolite signal: 2.47E+05 and 3.01E+05 and 2.50E+05
  Poly-gamma-D-glutamate (C05723) metabolite signal: 2.49E+07 and 2.77E+07 and 3.43E+07
[2]
  D-Ribitol 5-phosphate (C01068) metabolite signal: 1.89E+04 and 2.70E+04 and 1.78E+04
  D-glucono-1,5-lactone (C00198) metabolite signal: 5.20E+05 and 6.45E+05 and 5.70E+05
  L-Noradrenaline (C00547) metabolite signal: 5.30E+04 and 6.26E+04 and 5.84E+04
  Oxalosuccinate (C05379) metabolite signal: 1.60E+05 and 1.51E+05 and 1.30E+05
  Pyridoxamine (C00534) metabolite signal: 4.35E+04 and 3.15E+04 and 3.96E+04
  Thioredoxin disulfide (C00343) metabolite signal: 4.45E+04 and 2.53E+04 and 3.52E+04
[3]
  1-4-beta-D-Xylan (metabolite signal): 2.42E+05 and 2.55E+05 and 2.51E+05
  2-Hydroxyglutarate/Citramalate (C02630) metabolite signal: 8.78E+04 and 9.72E+04 and 1.18E+05
  5-6-Dihydrothymine (C00906) metabolite signal: 3.10E+05 and 2.80E+05 and 2.87E+05
  5-10-Methenyltetrahydrofolate (metabolite signal): 3.54E+05 and 4.17E+05 and 3.24E+05
  5-Hydroxyisourate (C11821) metabolite signal: 5.17E+06 and 5.16E+06 and 5.68E+06
  5-L-Glutamyl-taurine (metabolite signal): 1.45E+05 and 1.54E+05 and 1.36E+05
  5-Oxoproline (metabolite signal): 8.54E+05 and 9.65E+05 and 9.67E+05
  (S)(+)-Allantoin (C02350) metabolite signal: 4.35E+04 and 3.58E+04 and 0.00E+00
  Allantoate (C00499) metabolite signal: 2.71E+05 and 2.04E+05 and 2.56E+05
  Ascorbate (metabolite signal): 9.30E+04 and 6.85E+04 and 1.08E+05
  CMP-N-acetylneuraminate (metabolite signal): 1.38E+04 and 2.26E+04 and 3.45E+04
  Carnosine (metabolite signal): 2.64E+05 and 2.93E+05 and 2.91E+05
  Citrate (C00158) metabolite signal: 2.63E+04 and 3.23E+04 and 3.56E+04
  Creatine (metabolite signal): 2.99E+08 and 3.28E+08 and 3.02E+08
  Creatinine (metabolite signal): 3.46E+06 and 3.25E+06 and 2.95E+06
  Cys-Gly (metabolite signal): 2.55E+06 and 2.28E+06 and 2.13E+06
  D-Glucosamine (metabolite signal): 1.73E+05 and 2.02E+05 and 1.88E+05
  D-Glucose (C00031) metabolite signal: 6.07E+06 and 5.64E+06 and 6.25E+06
  D-Ribose (C00121) metabolite signal: 1.75E+05 and 2.10E+05 and 1.84E+05
  Dehydroascorbate (metabolite signal): 1.78E+04 and 9.28E+03 and 1.77E+04
  Dihydrofolate (metabolite signal): 1.24E+06 and 6.72E+05 and 1.27E+06
  Dimethylglycine (metabolite signal): 1.14E+06 and 1.17E+06 and 1.06E+06
  Diphosphate (C00013) metabolite signal: 3.26E+03 and 1.34E+03 and 1.52E+03
  Fumarate (C00122) metabolite signal: 1.08E+05 and 1.33E+05 and 1.27E+05
  Glutathione (C00051) metabolite signal: 1.64E+08 and 1.52E+08 and 1.45E+08
  Glutathione disulfide (metabolite signal): 1.36E+05 and 2.52E+05 and 3.91E+05
  Hypoxanthine (C00262) metabolite signal: 6.53E+04 and 4.36E+04 and 3.66E+04
  IMP (C00130) metabolite signal: 9.13E+04 and 0.00E+00 and 4.11E+04
  Inosine (C00294) metabolite signal: 9.07E+04 and 1.09E+05 and 1.15E+05
  L-Citrulline (metabolite signal): 3.18E+06 and 3.52E+06 and 3.48E+06
  L-Homoserine (metabolite signal): 2.14E+05 and 2.01E+05 and 2.23E+05
  Lactate (C01432) metabolite signal: 9.04E+06 and 8.73E+06 and 8.57E+06
  Malate (C00149) metabolite signal: 1.84E+05 and 2.15E+05 and 2.30E+05
  Mannitol (C00392) metabolite signal: 1.48E+05 and 1.43E+05 and 1.44E+05
  N-Acetylneuraminate (metabolite signal): 2.84E+04 and 2.76E+04 and 2.63E+04
  N-Glycoloyl-neuraminate (metabolite signal): 1.80E+05 and 1.43E+05 and 1.72E+05
  NAD+ (C00003) metabolite signal: 7.76E+04 and 1.99E+05 and 4.14E+05
  Nicotinamide (C00153) metabolite signal: 3.69E+07 and 3.94E+07 and 3.72E+07
  Ornithine (metabolite signal): 2.34E+06 (2×) and 2.32E+06
  Oxaloacetate (C00036) metabolite signal: 4.10E+04 and 3.82E+04 and 3.53E+04
  Phosphoserine (metabolite signal): 5.43E+04 and 2.60E+05 and 7.13E+04
  Putrescine (metabolite signal): 8.30E+04 and 7.12E+04 and 6.80E+04
  Pyridoxal (C00250) metabolite signal: 7.95E+04 and 8.76E+04 and 8.42E+04
  Pyruvate (C00022) metabolite signal: 6.67E+05 and 7.32E+05 and 6.75E+05
  S-Glutathionyl-L-cysteine (metabolite signal): 6.44E+04 and 8.58E+04 and 2.21E+05
  Sedoheptulose 1-phosphate (C06222) metabolite signal: 1.56E+04 and 1.68E+04 and 1.80E+04
  Spermidine (metabolite signal): 9.65E+06 and 9.19E+06 and 9.18E+06
  Spermine (metabolite signal): 9.74E+06 and 8.90E+06 and 1.00E+07
  Succinate (C00042) metabolite signal: 9.57E+04 and 9.51E+04 and 9.45E+04
  Thymidine (C00214) metabolite signal: 1.34E+04 and 1.17E+04 and 1.87E+04
  UDP (C00015) metabolite signal: 2.09E+05 and 1.18E+05 and 1.38E+05
  UDP-N-acetyl-D-glucosamine (metabolite signal): 1.55E+04 and 2.01E+04 and 2.26E+04
  UDP-glucose (C00029) metabolite signal: 3.09E+04 and 3.55E+04 and 4.15E+04
  Urate (C00366) metabolite signal: 3.51E+04 and 2.72E+04 and 2.68E+04
  Xanthine (C00385) metabolite signal: 3.66E+05 and 3.57E+05 and 3.29E+05
  alpha-D-Glucosamine 1-phosphate (metabolite signal): 2.09E+06 and 2.40E+06 and 2.18E+06
  alpha-D-Ribose 1-phosphate (C00620) metabolite signal: 1.08E+05 and 8.84E+04 and 1.07E+05
  gamma-Glutamyl-gamma-aminobutyrate (metabolite signal): 9.93E+04 and 1.32E+05 and 1.00E+05
  gamma-L-Glutamyl-D-alanine (metabolite signal): 3.99E+04 and 3.09E+04 and 3.31E+04
  gamma-L-Glutamyl-L-cysteine (metabolite signal): 1.39E+04 and 2.39E+04 and 2.36E+04
